Reference: ChEMBL document CHEMBL5696443 (Clin Cancer Res, 2016)
Active and inactive are the calls of the source. No cut-off for these calls is given here.

Experiments:
[1] = target: Serine/threonine-protein kinase WNK3 (Homo sapiens) (UniProt Q9BYP7); experiment: Inhibition of human WNK3 at 1 uM using MBP as substrate in presence of [gamma33P]-ATP by HotSpot assay relative to control
[2] = target: Cyclin-dependent kinase 4/cyclin D1 (Homo sapiens) (UniProt P11802+P24385); experiment: Inhibition of human CDK4/CyclinD1 at 1 uM using RB protein as substrate in presence of [gamma33P]-ATP by HotSpot assay relative to control; assay type: protein-complex assay
NCI-H2228 = conditions: time 72 hrs
[3] = target: MAP/microtubule affinity-regulating kinase 3 (Homo sapiens, UniProt P27448); experiment: Inhibition of human MARK3 using KKKVSRSGLYRSPSMPENLNRPR as substrate in presence of [gamma33P]-ATP by HotSpot assay
[4] = Toxicity in CB-17/SCID mouse implanted with ALK positive mouse BaF3 cells expressing EML4-ALK G1202R mutant assessed as effect on body weight at 25 to 50 mg/kg, po administered once daily and measured after 6 days; assay type: organism-based; conditions: in vivo, 144 h, dose 25-50 mg/kg, time 6 day
[5] = target: Tyrosine-protein kinase Fgr (Homo sapiens, UniProt P09769); experiment: Inhibition of human FGR using poly (Glu, Tyr)4:1 as substrate in presence of [gamma33P]-ATP by HotSpot assay
[6] = target: Leucine-rich repeat serine/threonine-protein kinase 2 (Homo sapiens, UniProt Q5S007); experiment: Inhibition of human LRRK2 using RLGRDKYKTLRQIRQ as substrate in presence of [gamma33P]-ATP by HotSpot assay
[7] = target: Serine/threonine-protein kinase Nek6 (Homo sapiens) (UniProt Q9HC98); experiment: Inhibition of human NEK6 at 1 uM using casein as substrate in presence of [gamma33P]-ATP by HotSpot assay relative to control
Chain of Serine/threonine-protein kinase Nek6 (Homo sapiens) (Q9HC98 whole entry): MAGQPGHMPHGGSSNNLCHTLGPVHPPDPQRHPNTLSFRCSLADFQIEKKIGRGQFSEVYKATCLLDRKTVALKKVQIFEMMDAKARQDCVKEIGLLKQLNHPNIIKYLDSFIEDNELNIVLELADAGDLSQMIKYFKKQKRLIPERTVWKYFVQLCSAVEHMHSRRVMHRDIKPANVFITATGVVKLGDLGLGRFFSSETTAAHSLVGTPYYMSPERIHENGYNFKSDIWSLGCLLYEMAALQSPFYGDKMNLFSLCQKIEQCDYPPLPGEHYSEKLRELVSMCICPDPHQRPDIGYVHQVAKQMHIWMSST

[8] = target: Inhibitor of nuclear factor kappa-B kinase subunit alpha (Homo sapiens) (UniProt O15111); experiment: Inhibition of human CHUK at 1 uM using KKKKERLLDDRHDSGLDSMKDEE as substrate in presence of [gamma33P]-ATP by HotSpot assay relative to control
[9] = target: Tyrosine-protein kinase CSK (Homo sapiens, UniProt P41240); experiment: Inhibition of human CSK using poly (Glu, Tyr)4:1 as substrate in presence of [gamma33P]-ATP by HotSpot assay
[10] = target: Ephrin type-B receptor 2 (Homo sapiens) (UniProt P29323); experiment: Inhibition of human EPHB2 at 1 uM using poly (Glu, Tyr)4:1 as substrate in presence of [gamma33P]-ATP by HotSpot assay relative to control
[11] = target: PAS domain-containing serine/threonine-protein kinase (Homo sapiens) (UniProt Q96RG2); experiment: Inhibition of human PASK at 1 uM using KKLNRTLSFAEPG as substrate in presence of [gamma33P]-ATP by HotSpot assay relative to control
[12] = target: RAF proto-oncogene serine/threonine-protein kinase (Homo sapiens) (UniProt P04049); experiment: Inhibition of human RAF1 at 1 uM using MEK1 as substrate in presence of [gamma33P]-ATP by HotSpot assay relative to control
[13] = target: Megakaryocyte-associated tyrosine-protein kinase (Homo sapiens) (UniProt P42679); experiment: Inhibition of human MATK at 1 uM using poly (Glu, Tyr)4:1 as substrate in presence of [gamma33P]-ATP by HotSpot assay relative to control
[14] = target: cGMP-dependent protein kinase 1 (Homo sapiens) (UniProt Q13976); experiment: Inhibition of human PKG1b at 1 uM using LRRASLG as substrate in presence of [gamma33P]-ATP by HotSpot assay relative to control
[15] = target: Testis-specific serine/threonine-protein kinase 1 (Homo sapiens, UniProt Q9BXA7); experiment: Inhibition of human TSSK1 using KKKVSRSGLYRSPSMPENLNRPR as substrate in presence of [gamma33P]-ATP by HotSpot assay
[16] = target: MAP kinase-activated protein kinase 5 (Homo sapiens) (UniProt Q8IW41); experiment: Inhibition of human MAPKAPK5 at 1 uM using KKLNRTLSVA as substrate in presence of [gamma33P]-ATP by HotSpot assay relative to control
[17] = Average plasma concentration in CB-17/SCID mouse implanted with mouse BaF3 cells expressing EML4-ALK G1202R mutant at 25 mg/kg, po administered once daily for 7 days by LC-MS/MS analysis; assay type: ADME, organism-based; conditions: in vivo, 168 h, time 7 day
[18] = target: NT-3 growth factor receptor (Homo sapiens) (UniProt Q16288); experiment: Inhibition of human NTRK3 at 1 uM using poly (Glu, Tyr)4:1 as substrate in presence of [gamma33P]-ATP by HotSpot assay relative to control
[19] = Average plasma concentration in CB-17/SCID mouse at 50 mg/kg administered once a day for 4 days by LC-MS/MS analysis; assay type: ADME, organism-based; conditions: in vivo, 96 h, time 4 day
[20] = target: Serine/threonine-protein kinase TAO1 (Homo sapiens, UniProt Q7L7X3); experiment: Inhibition of human TAOK1 using MBP as substrate in presence of [gamma33P]-ATP by HotSpot assay
Chain of Serine/threonine-protein kinase TAO1 (Q7L7X3 whole entry): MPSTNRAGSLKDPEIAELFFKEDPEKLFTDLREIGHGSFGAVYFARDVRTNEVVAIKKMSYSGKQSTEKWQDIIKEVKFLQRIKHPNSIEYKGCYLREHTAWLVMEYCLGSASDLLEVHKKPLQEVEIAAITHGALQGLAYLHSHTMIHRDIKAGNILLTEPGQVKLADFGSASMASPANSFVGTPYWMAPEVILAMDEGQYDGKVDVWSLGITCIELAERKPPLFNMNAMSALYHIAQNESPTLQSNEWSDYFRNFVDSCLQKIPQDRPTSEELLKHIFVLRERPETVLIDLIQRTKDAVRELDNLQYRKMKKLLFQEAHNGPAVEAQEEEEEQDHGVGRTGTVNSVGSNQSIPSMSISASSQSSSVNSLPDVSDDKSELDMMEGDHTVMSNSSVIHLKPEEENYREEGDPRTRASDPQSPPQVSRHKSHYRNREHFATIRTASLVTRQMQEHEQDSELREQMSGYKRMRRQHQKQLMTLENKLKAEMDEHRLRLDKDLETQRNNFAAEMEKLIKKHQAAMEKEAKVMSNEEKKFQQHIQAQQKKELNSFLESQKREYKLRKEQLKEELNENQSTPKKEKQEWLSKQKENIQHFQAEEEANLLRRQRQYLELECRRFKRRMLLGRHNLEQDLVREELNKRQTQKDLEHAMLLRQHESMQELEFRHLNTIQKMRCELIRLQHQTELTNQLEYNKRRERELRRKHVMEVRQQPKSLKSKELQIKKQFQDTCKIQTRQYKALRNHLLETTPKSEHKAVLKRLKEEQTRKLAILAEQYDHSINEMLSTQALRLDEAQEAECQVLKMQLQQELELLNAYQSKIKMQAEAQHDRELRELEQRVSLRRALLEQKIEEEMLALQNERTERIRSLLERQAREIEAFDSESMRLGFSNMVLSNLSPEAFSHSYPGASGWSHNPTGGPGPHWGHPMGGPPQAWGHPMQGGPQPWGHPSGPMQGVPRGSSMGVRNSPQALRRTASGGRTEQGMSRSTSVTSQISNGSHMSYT

[21] = target: Serine/threonine-protein kinase 10 (Homo sapiens, UniProt O94804); experiment: Inhibition of human STK10 using RLGRDKYKTLRQIRQ as substrate in presence of [gamma33P]-ATP by HotSpot assay
Chain of Serine/threonine-protein kinase 10 (O94804 whole entry): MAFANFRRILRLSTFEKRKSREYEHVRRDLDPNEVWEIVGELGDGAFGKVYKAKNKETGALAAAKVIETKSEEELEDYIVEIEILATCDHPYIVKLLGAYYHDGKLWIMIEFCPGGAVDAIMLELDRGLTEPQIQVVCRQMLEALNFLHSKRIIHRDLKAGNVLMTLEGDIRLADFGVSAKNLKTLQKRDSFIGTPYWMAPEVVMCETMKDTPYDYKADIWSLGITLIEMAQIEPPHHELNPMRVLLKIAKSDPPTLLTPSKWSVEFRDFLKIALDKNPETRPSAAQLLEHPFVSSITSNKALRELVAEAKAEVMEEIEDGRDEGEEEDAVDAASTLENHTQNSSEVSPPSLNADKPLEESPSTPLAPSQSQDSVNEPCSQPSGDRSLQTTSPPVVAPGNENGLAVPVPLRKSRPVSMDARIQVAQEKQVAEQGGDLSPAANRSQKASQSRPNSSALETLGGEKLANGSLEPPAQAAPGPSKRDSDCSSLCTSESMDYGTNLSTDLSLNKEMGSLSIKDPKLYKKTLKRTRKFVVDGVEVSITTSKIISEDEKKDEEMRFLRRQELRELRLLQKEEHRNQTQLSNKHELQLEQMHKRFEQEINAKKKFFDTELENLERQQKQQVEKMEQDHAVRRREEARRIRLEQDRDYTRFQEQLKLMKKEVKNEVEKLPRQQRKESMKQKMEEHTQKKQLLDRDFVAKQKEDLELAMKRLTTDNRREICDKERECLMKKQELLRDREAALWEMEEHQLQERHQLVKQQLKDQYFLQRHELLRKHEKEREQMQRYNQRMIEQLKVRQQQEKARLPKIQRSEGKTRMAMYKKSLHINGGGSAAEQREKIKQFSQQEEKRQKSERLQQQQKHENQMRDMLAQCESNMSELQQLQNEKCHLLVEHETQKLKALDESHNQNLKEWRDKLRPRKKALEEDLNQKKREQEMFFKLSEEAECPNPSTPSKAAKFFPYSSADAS

[22] = target: Dual specificity protein kinase TTK (Homo sapiens) (UniProt P33981); experiment: Inhibition of human TTK at 1 uM using MBP as substrate in presence of [gamma33P]-ATP by HotSpot assay relative to control
DEL = conditions: time 72 hrs
[23] = target: Ephrin type-B receptor 4 (Homo sapiens) (UniProt P54760); experiment: Inhibition of human EPHB4 at 1 uM using poly (Glu, Tyr)4:1 as substrate in presence of [gamma33P]-ATP by HotSpot assay relative to control
BaF3 = experiment: In vivo inhibition of ALK signaling in mouse implanted with mouse BaF3 cells expressing EML4-ALK G1202R mutant assessed as inhibition of ALK phosphorylation at 25 mg/kg, po administered as single dose and measured at 6 to 24 hrs by ELISA; assay type: functional, organism-based; conditions: time 6-24 hrs
[24] = target: Myosin light chain kinase, smooth muscle (Homo sapiens) (UniProt Q15746); experiment: Inhibition of human MYLK at 1 uM using KKLNRTLSFAEPG as substrate in presence of [gamma33P]-ATP by HotSpot assay relative to control
KARPAS-299 = conditions: time 72 hrs
[25] = target: Protein kinase C beta type (Homo sapiens) (UniProt P05771); experiment: Inhibition of human PRKCB at 1 uM using ERMRPRKRQGSVRRRV as substrate in presence of [gamma33P]-ATP by HotSpot assay relative to control
Chain of Protein kinase C beta type (Homo sapiens) (P05771 2-671 limits assumed): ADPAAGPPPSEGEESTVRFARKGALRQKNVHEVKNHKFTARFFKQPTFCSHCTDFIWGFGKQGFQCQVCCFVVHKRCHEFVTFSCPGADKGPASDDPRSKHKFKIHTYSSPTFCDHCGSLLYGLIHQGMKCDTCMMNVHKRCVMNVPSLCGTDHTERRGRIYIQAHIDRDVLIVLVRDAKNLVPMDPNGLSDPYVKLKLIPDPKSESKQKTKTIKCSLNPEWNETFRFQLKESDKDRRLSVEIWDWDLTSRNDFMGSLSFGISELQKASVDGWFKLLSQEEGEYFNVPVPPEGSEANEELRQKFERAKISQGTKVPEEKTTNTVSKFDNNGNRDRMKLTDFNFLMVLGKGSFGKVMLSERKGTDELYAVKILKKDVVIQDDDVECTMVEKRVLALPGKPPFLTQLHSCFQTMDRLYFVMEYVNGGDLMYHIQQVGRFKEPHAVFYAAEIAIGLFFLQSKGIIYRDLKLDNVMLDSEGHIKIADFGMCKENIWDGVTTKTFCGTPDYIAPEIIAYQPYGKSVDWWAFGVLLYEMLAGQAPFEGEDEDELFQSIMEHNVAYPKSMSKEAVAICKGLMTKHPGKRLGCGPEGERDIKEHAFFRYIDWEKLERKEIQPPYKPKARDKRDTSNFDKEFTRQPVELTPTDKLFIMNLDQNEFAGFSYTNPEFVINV

Chain of Serine/threonine-protein kinase WNK3 (Homo sapiens) (Q9BYP7 whole entry): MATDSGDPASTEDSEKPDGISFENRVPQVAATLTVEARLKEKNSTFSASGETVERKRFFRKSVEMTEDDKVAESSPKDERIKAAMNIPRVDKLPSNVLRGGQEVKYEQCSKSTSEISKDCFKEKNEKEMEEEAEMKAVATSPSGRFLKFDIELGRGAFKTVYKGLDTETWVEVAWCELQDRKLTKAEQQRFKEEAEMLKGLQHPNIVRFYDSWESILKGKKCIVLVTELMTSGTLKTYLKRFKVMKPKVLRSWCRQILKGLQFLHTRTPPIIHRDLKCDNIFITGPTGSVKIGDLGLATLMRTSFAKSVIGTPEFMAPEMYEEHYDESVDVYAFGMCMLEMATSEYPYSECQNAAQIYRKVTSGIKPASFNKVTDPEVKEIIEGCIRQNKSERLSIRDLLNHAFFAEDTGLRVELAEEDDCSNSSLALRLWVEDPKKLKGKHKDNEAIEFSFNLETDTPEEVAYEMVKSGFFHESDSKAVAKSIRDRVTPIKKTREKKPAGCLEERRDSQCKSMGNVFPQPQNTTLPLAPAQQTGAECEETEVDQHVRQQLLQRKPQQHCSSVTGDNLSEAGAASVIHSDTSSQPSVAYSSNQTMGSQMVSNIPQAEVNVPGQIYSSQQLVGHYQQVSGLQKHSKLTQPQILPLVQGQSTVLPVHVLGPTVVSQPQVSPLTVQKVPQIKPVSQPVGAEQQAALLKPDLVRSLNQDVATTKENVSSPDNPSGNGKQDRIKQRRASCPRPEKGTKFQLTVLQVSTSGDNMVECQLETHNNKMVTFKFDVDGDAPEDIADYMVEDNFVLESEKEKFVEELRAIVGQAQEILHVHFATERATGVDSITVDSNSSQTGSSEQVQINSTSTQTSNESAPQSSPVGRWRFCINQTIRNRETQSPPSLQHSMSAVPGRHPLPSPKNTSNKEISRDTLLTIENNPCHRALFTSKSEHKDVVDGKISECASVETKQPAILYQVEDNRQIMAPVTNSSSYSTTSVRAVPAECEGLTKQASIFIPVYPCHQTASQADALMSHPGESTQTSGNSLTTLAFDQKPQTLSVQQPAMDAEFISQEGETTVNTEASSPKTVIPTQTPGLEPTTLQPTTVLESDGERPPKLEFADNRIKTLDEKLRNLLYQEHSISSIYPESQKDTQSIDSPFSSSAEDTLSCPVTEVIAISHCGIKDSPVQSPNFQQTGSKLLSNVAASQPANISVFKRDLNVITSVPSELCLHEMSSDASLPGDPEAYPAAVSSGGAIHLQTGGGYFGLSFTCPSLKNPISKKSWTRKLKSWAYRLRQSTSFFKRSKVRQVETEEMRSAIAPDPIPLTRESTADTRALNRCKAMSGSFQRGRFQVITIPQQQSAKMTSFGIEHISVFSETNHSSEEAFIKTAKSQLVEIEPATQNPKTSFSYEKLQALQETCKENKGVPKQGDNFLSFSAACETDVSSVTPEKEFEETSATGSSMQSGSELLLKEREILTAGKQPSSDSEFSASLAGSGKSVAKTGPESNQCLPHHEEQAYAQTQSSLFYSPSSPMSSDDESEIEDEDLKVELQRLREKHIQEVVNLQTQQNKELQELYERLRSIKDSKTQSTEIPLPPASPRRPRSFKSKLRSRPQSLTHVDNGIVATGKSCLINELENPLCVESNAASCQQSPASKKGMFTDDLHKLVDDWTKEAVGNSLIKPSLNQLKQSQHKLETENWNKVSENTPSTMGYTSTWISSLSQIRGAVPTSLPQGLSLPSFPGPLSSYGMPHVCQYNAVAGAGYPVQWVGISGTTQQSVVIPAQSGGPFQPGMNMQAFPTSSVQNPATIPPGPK

SMILES: COc1cc(N2CCC(N3CCN(C)CC3)CC2)ccc1Nc1ncc(Cl)c(Nc2ccccc2P(C)(C)=O)n1 [BRIGATINIB]
- inhibition [1]: < 90%
- inhibition [2]: < 90%
- GI50 (NCI-H2228): 10 nM
- IC50 [3]: 127 nM
- Activity [4]: Non-Toxic
- IC50 [5]: 492 nM
- IC50 [6]: 51 nM
- inhibition [7]: < 90%
- inhibition [8]: < 90%
- IC50 [9]: 329 nM
- inhibition [10]: < 90%
- inhibition [11]: < 90%
- inhibition [12]: < 90%
- inhibition [13]: < 90%
- inhibition [14]: < 90%
- IC50 [15]: 4.4 nM
- inhibition [16]: < 90%
- Cave [17]: 2546 nM
- inhibition [18]: < 90%
- Cave [19]: 1870 nM
- IC50 [20]: 493 nM
- IC50 [21]: 123 nM
- inhibition [22]: < 90%
- GI50 (DEL): 31 nM
- inhibition [23]: < 90%
- inhibition (BaF3): Active
- inhibition [24]: < 90%
- GI50 (KARPAS-299): 10 nM
- inhibition [25]: < 90%
